Data published in patent publication US11319305B2, “Pyrimidine sulfamide derivative and preparation method and medical application thereof” (SHIJIAZHUANG SAGACITY NEW DRUG DEVELOPMENT CO., LTD., priority 2017, dated 2022).

Columns and labels:
CYP2C19 = target: T1, CYP2C19 (Homo sapiens, UniProt P33261); experiment: Human liver microsomal cytochrome P450 isozyme inhibition assay, CYP2C19; assay type: in vitro ADME; conditions: human liver microsomes
T1 construct: Mixed human liver microsomes (HLM) were purchased from Corning Inc; tissue Corning Inc; host or cells: pooled human liver microsomes
T1 sequence (P33261 whole entry): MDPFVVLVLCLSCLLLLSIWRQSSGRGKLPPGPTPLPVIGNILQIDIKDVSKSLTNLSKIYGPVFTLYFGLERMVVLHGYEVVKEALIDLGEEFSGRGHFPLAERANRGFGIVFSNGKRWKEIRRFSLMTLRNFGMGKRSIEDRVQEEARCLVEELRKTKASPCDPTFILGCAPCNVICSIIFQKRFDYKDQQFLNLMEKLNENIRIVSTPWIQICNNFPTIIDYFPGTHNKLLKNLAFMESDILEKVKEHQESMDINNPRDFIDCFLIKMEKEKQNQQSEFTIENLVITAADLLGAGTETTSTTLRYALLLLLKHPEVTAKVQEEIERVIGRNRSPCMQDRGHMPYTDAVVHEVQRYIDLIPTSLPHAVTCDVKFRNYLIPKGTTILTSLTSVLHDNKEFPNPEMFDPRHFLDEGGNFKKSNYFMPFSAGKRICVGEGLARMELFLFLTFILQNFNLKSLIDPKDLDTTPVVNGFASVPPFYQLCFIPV
Description: (§1) Experimental Embodiment 4: Human Liver Microsomal Cytochrome P450 Isozyme Inhibition Assay The purpose of the assay was to evaluate the inhibitory activity of the samples against human liver microsomal cytochrome P450 isozyme (CYP1A2, CYP2C9, CYP2C19, CYP2D6 and CYP3A4) using the 5-in-1 probe substrate of the CYP isozyme. Mixed human liver microsomes (HLM) were purchased from Corning Inc. (Steuben, N.Y., USA) and stored below −80° C. before use. The test compound working solution which has been diluted into serial concentrations was added to an incubation system containing human liver microsomes, probe substrates and circulating system cofactors, and a control containing solvent without the test compound was used as the enzyme activity control (100%). The concentration of the metabolite produced by the probe substrate in the sample was determined using a liquid chromatography-tandem mass spectrometry (LC-MS/MS) method. Nonlinear regression analysis was performed on the average percent activity versus concentration of subjects using SigmaPlot (V.11). The IC50 value was calculated by a three-parameter or four-parameter inverse-logarithmic equation.

[1] = tested on: human liver microsomal cytochrome P450 isozyme (CYP1A2, CYP2C9, CYP2C19, CYP2D6 and CYP3A4); experiment: Human liver microsomal cytochrome P450 isozyme inhibition assay, summary over the main isozymes; assay type: in vitro ADME
Description: as §1

CYP2D6 = target: T2, CYP2D6 (Homo sapiens, UniProt P10635); experiment: Human liver microsomal cytochrome P450 isozyme inhibition assay, CYP2D6; assay type: in vitro ADME; conditions: human liver microsomes
T2 construct: Mixed human liver microsomes (HLM) were purchased from Corning Inc; tissue Corning Inc; host or cells: pooled human liver microsomes
T2 sequence (P10635 whole entry): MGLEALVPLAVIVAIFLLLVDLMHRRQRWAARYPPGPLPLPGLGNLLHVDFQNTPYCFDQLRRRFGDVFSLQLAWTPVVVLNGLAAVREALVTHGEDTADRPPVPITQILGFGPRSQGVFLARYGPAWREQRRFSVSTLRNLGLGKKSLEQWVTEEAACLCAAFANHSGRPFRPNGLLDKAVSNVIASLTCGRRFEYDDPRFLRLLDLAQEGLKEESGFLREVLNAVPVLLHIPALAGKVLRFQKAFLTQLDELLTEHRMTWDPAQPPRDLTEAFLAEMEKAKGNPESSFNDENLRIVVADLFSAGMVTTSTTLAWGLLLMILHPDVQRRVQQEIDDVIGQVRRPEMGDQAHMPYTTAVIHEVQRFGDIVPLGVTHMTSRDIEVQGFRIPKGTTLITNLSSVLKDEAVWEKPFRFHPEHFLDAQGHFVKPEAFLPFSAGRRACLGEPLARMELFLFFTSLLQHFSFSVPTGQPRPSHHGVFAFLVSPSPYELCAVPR
Description: as §1

CYP3A4 = target: T3, CYP3A4 (Homo sapiens, UniProt P08684); experiment: Human liver microsomal cytochrome P450 isozyme inhibition assay, CYP3A4; assay type: in vitro ADME; conditions: human liver microsomes
T3 construct: Mixed human liver microsomes (HLM) were purchased from Corning Inc; tissue Corning Inc; host or cells: pooled human liver microsomes
T3 sequence (P08684 whole entry): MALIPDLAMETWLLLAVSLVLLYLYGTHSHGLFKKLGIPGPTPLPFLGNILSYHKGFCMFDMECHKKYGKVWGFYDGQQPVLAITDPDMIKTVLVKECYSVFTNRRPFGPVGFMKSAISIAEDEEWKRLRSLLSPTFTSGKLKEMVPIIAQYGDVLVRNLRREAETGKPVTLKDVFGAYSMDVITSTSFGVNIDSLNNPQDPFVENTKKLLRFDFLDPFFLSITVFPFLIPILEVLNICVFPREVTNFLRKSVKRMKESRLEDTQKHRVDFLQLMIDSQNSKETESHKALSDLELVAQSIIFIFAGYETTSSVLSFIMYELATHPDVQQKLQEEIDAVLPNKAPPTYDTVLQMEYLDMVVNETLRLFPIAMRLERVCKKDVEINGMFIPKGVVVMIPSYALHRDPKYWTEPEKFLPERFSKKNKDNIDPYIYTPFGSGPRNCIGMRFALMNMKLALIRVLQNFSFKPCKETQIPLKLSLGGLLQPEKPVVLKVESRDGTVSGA
Description: as §1

CYP2C9 = target: T4, CYP2C9 (Homo sapiens, UniProt P11712); experiment: Human liver microsomal cytochrome P450 isozyme inhibition assay, CYP2C9; assay type: in vitro ADME; conditions: human liver microsomes
T4 construct: Mixed human liver microsomes (HLM) were purchased from Corning Inc; tissue Corning Inc; host or cells: pooled human liver microsomes
T4 sequence (P11712 whole entry): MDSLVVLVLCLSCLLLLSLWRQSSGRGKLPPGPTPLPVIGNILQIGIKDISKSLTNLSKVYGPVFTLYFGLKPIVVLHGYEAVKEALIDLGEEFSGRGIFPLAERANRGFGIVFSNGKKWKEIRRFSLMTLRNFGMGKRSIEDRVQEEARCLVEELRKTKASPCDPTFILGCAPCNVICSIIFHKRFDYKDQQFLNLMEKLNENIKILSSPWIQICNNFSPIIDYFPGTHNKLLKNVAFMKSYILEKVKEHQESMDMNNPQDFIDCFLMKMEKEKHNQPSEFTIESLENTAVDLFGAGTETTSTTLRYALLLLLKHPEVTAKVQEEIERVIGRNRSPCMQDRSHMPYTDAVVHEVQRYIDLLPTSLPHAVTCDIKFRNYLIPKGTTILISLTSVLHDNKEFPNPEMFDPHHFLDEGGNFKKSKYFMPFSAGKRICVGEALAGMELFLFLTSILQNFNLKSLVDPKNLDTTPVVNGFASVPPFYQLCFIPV
Description: as §1

CYP1A2 = target: T5, CYP1A2 (Homo sapiens, UniProt P05177); experiment: Human liver microsomal cytochrome P450 isozyme inhibition assay, CYP1A2; assay type: in vitro ADME; conditions: human liver microsomes
T5 construct: Mixed human liver microsomes (HLM) were purchased from Corning Inc; tissue Corning Inc; host or cells: pooled human liver microsomes
T5 sequence (P05177 1-516): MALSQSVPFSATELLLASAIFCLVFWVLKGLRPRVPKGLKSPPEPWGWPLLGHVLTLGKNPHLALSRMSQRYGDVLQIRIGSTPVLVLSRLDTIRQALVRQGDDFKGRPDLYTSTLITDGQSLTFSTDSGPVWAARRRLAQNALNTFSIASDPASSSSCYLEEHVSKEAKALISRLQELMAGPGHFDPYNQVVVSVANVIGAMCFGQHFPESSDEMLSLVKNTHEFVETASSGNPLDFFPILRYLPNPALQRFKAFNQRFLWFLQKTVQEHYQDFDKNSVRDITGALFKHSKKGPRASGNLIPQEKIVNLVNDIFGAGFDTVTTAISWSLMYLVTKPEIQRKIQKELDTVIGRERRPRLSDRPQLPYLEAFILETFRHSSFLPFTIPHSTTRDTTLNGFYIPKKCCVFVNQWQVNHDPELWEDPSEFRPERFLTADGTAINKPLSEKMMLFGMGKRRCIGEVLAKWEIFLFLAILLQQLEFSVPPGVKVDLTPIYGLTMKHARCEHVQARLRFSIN
Description: as §1

human ETA receptor = target: T6, human ETA receptor (Homo sapiens, UniProt P25101); experiment: In vitro antagonistic effect against human ETA receptor, Ca2+ signal in SK-N-MC cells; assay type: cell-based; conditions: for IC50: SK-N-MC cells, response to 1 nM endothelin-1; for ETA/ETB selectivity: ratio of ETB IC50 to ETA IC50
T6 construct: endogenously expressed human ETA receptors in SK-N-MC cells; host or cells: SK-N-MC cells
T6 sequence (P25101 21-427): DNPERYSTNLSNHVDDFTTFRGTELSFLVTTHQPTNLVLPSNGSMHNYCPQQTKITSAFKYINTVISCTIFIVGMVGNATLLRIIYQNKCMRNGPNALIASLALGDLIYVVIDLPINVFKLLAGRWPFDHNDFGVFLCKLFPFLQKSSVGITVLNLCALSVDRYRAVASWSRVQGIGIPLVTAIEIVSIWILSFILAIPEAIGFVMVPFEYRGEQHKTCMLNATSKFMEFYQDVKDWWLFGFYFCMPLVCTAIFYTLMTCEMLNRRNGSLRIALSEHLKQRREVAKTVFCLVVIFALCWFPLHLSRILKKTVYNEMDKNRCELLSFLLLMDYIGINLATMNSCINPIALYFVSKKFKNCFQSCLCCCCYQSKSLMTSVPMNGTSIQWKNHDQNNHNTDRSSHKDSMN
Description: Experimental Embodiment 1: In Vitro Test of Antagonistic Effect Against Human ETA Receptor
Antagonistic activity of the compounds against endogenously expressed human ETA receptors in SK-N-MC cells was evaluated by measuring the effect of compounds on the changes in cytoplasmic Ca^2+ ion signal induced by human ETA receptor agonists using fluorescence detection methods. The functional activity of the ETA receptor antagonistic effect was tested in Eurofins-Cerep SA according to current standard procedures.
1. Cells were suspended in Dulbecco's modified Eagle medium solution (DMEM, Invitrogen) supplemented with 1% FCSd, then distributed in 384-well plate (100 μL/well) at a density of 5×10^4 cells/well;
2. Probenecid in Hank's balanced salt solution (HBSS, Invitrogen) supplemented with 20 mM 4-(2-hydroxyethyl)piperazine-1-ethanesulfonic acid (Hepes, Invitrogen) (pH 7.4) was mixed with fluorescent probe (Fluo4 NW, Invitrogen), the mixture was added to each wells, then balanced with cells at 37° C. for 60 minutes, and then balanced with cells at 22° C. for 15 minutes;
(§2) 3. The test plate was placed in a microplate reader (CellLux, PerkinElmer), a DMSO solution or HBSS buffer with an appropriate concentration of the test compound and the positive control was added, and 1 nM endothelin-1 or HBSS buffer (base control) was added after 5 minutes, and then the change in fluorescence intensity proportional to the concentration of Ca^2+ ions of free […] was measured;
5. Standard positive control was BQ-123, several concentrations were tested in each experiments. The data was analyzed using Prism to generate a concentration-response curve, and IC50 values of the compounds were calculated.

human ETB receptor = target: T7, human ETB receptor (Homo sapiens, UniProt P24530); experiment: In vitro antagonistic effect against human ETB receptor, Ca2+ signal in transfected CHO cells; assay type: cell-based; conditions: response to 0.3 nM endothelin-1
T7 construct: host or cells: CHO cells
T7 sequence (P24530 27-442): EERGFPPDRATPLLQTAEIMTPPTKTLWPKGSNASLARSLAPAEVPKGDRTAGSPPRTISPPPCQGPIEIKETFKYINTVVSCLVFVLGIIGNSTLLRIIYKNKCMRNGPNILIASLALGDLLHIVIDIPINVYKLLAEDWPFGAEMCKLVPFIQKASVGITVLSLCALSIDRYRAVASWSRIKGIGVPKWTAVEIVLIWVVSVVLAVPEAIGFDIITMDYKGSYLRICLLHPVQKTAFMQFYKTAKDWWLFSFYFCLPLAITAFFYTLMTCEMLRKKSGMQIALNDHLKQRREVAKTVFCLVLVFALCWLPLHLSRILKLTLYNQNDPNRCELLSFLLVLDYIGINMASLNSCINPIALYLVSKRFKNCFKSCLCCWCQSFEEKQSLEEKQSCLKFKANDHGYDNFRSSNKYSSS
Description: Antagonist activity of the compound against human ETB receptors expressed in transfected CHO cells was evaluated by measuring the effect of the compound on the changes in the cytoplasmic Ca^2+ ion signal induced by human ETB receptor agonists. The functional activity of the ETB receptor antagonistic effect was tested in Eurofins-Cerep SA according to current standard procedures.
1. Cells were suspended in DMEM buffer (Invitrogen) and then distributed in 384-well plate (100 μL/well) at a density of 3×10^4 cells/well;
2. Probenecid in HBSS buffer (Invitrogen) supplemented with 20 mM Hepes (Invitrogen) (pH 7.4) was mixed with fluorescent probe (Fluo4 NW, Invitrogen), the mixture was added to each wells, then balanced with cells at 37° C. for 60 minutes, and then balanced with cells at 22° C. for 15 minutes;
as §2, with “and 0.3” for “and 1”
4. Results were shown as the percent inhibition of control response to 0.3 nM endothelin-1;
5. Standard positive control was BQ-788, several concentrations were tested in each experiments. The data was analyzed using Prism to generate a concentration-response curve, and IC50 values of the compounds were calculated.

SMILES	IC50 (CYP2C19)	inhibitory effects on five main isozymes of CYP (in words) [1]	IC50 (CYP2D6)	IC50 (CYP3A4)	IC50 (CYP2C9)	IC50 (CYP1A2)	IC50 (human ETA receptor)	ETA/ETB selectivity (human ETA receptor)	IC50 (human ETB receptor)
O=S(=O)(NCC1CC1)Nc1ncnc(OCCOc2ncc(Br)cn2)c1-c1ccc2scnc2c1 [WX005]	> 50 µM	very weak	> 50 µM	> 50 µM	> 50 µM	> 50 µM	0.0014 µM	78500	110 µM
CCCNS(=O)(=O)Nc1ncnc(OCCOc2ncc(Br)cn2)c1-c1ccc2ccnn2c1 [WX025]	> 50 µM	very weak	> 50 µM	> 50 µM	35 µM	> 50 µM	0.0031 µM	19600	61 µM
